According to patent US5466717A, “Halogenated 4'-methoxyacetophenones as microbicides and preservatives” (Buckman Laboratories Int'l, Inc., priority 1993, dated 1995):

Key:
E. aerogenes = assay: Basal salts method, percentage kill of E. aerogenes (Table 5); assay type: cell-based, Enterobacter aerogenes; conditions: Klebsiella aerogenes
Method: Compounds 1 and 2 were tested against bacterial growth by the basal salts method described in U.S. Pat. No. 2,881,070, Column 5, line 12--Column 6, line 53. The disclosure of U.S. Patent No. 2,881,070 is specifically incorporated here by reference.

[1] = test system: Desulfovibrio desulfuricans; assay: Effectiveness against sulfate reducing bacterium, Method API Rp 38 (Table 7); assay type: cell-based; set-up: key: 4: excellent; 3: good; 2: poor; 1: very poor, scant, questionable; 0: no growth; conditions: pH 7.0, duplicates
Method: The effectiveness of compounds 1 and 2 against Desulfovibrio desulfuricans,a sulfate reducing bacterium, was determined using the method recommended by the American Petroleum Institute (Method API Rp 38). The composition of the sulfate-reducer medium for the bacteriostatic test is as follows: The ingredients are dissolved by gentle heating with constant stirring. […] If necessary, the medium is then filtered through Whatman No. 1 or No. 2 filter paper. Following filtration, the medium is autoclaved at 15 lb steam pressure for […]. After autoclaving, the medium is allowed to cool slightly and the iron salt, Fe(SO4)2 (NH4)2.6H2 O, is added. The pH is then checked and readjusted if necessary. The medium is now cooled to room temperature as rapidly as possible, without agitation. After cooling, the medium is inoculated from the third successive 24-hour transfer of an actively growing culture (a liquid culture which turns black within 24 hours after inoculation) of sulfate-reducing bacteria. Ten milliliters of inoculum are added to each liter of medium. From stock solutions of the chemical to be screened, sufficient amounts of the compounds are added to 1- or 2-oz clear bottles so that the desired concentrations of chemicals are present when the containers are filled. The amount of stock solution added cannot exceed 10 percent of the volume of the test bottle. After addition of the chemical, the bottles are completely filled with the inoculated medium. The bottles are then capped with plastic caps containing cork and aluminum foil or Teflon liners and are incubated at 30°±2° C. All work is done in duplicate with at least three controls for each series. The controls consist of bottles filled with inoculated medium only. Growth of sulfate-reducing bacteria in the bottles is indicated by an intense blackening of the medium, whereas containers having sufficient chemical to inhibit growth will remain clear. Bottles with no sulfate-reducing bacteria growth are observed for a period of 28 days after the controls have blackened. The results were recorded using a +/0 scale where "+" indicates growth and "0" indicates no growth.

FUNGI = assay: Long term control of fungal growth on a paint film, ASTM D3456 (Table 8); conditions: latex paint on Southern yellow pine, 5 years and 5 months
Method: (§1) The effectiveness of halogenated 4'-methoxyacetophenones were evaluated for long term control of fungal and algal growth on a paint film following ASTM Procedure #D3456 (ASTM, 1916 Race St., Philadelphia, Pa. 19103). The test compared the effectiveness of compound 2, 2,2,3'-tribromo-4'-methoxyacetophenone, in latex paint with the commercially available biocides such as Nopcocide-96, and Troysan Polyphase over a period of 5 years and 5 months. The test paint was brush-applied (2 coats) over Southern yellow pine panels. A minimum of 24 hours was allowed between coats. The panels were rated based on the ASTM Procedure #D3274: […]

ALGAE = assay: Long term control of algal growth on a paint film, ASTM D3456 (Table 8); conditions: latex paint on Southern yellow pine, 5 years and 5 months
Method: as §1

Molecule COc1ccc(C(=O)CBr)cc1Br [Compound 1, 2,3'-dibromo-4'-methoxyacetophenone] has a killing at 2 ppm (E. aerogenes; pH 8.0) of 99%, a killing at 4 ppm (E. aerogenes; pH 8.0) of 99.9% and a killing at 8 ppm (E. aerogenes; pH 8.0) of 100%. For the same molecule, the killing at 10 ppm (E. aerogenes; pH 6.0) was 100%, the killing at 10 ppm (E. aerogenes; pH 8.0) was 100% and the killing at 20 ppm (E. aerogenes; pH 6.0) was 100%. The killing at 20 ppm (E. aerogenes; pH 8.0) was 100%, the killing at 30 ppm (E. aerogenes; pH 6.0) was 100% and the killing at 30 ppm (E. aerogenes; pH 8.0) was 100%. For the same molecule, the “growth of Desulfovibrio desulfuricans” value ([1]; 4 ppm) was 0, the “growth of Desulfovibrio desulfuricans” value ([1]; 10 ppm) was 0 and the “growth of Desulfovibrio desulfuricans” value ([1]; 15 ppm) was 0. For the same molecule, the “growth of Desulfovibrio desulfuricans” value ([1]; 20 ppm) was 0.

For COc1ccc(C(=O)C(Br)Br)cc1Br [Compound 2, 2,2,3'-tribromo-4'-methoxyacetophenone], the “FUNGI rating in paint film preservation” value (FUNGI; 0.25%) was 5.0, the “FUNGI rating in paint film preservation” value (FUNGI; 0.5%) was 5.0 and the killing at 2 ppm (E. aerogenes; pH 8.0) was 57%. It also gave a killing at 4 ppm (E. aerogenes; pH 8.0) of 100%, a killing at 8 ppm (E. aerogenes; pH 8.0) of 100% and a killing at 10 ppm (E. aerogenes; pH 6.0) of 100%. For the same molecule, the killing at 10 ppm (E. aerogenes; pH 8.0) was 100%, the killing at 20 ppm (E. aerogenes; pH 6.0) was 100% and the killing at 20 ppm (E. aerogenes; pH 8.0) was 100%. For the same molecule, the killing at 30 ppm (E. aerogenes; pH 6.0) was 100%, the killing at 30 ppm (E. aerogenes; pH 8.0) was 100% and the “growth of Desulfovibrio desulfuricans” value ([1]; 4 ppm) was 0. The “growth of Desulfovibrio desulfuricans” value ([1]; 8 ppm) was 0, the “growth of Desulfovibrio desulfuricans” value ([1]; 10 ppm) was 0 and the “growth of Desulfovibrio desulfuricans” value ([1]; 15 ppm) was 0. The “growth of Desulfovibrio desulfuricans” value ([1]; 20 ppm) was 0, the “ALGAE rating in paint film preservation” value (ALGAE; 0.25%) was 6.0 and the “ALGAE rating in paint film preservation” value (ALGAE; 0.5%) was 5.0.
